Experimental findings from patent EP0007648A1, “New acylureas with pharmaceutical activity, the process for their preparation, and pharmaceutical compositions which contain them” (Investigacion Tecnica Y Aplicada, S.A., priority 1978, dated 1980) are described below.

Data set [1] has as its system Platelet aggregation. As to the kind of experiment: Anti platelet aggregation activity "ex vivo" (Born), ADP-induced aggregation after administration by gastric catheter. It counts as in vivo, rats, Sprage Dawley. Conditions: for inhibition at 200 mg/kg: Dose 200 mg/kg p.o., rats, ADP-induced, 5 hours after administration; for anti platelet aggregation activity (in words): compared with acetilsalicilic acid given in a double dose. From the text: Platelet aggregation is induced by ADP (adenosindiphosphate) and measured in an aggregometer(Bryston) connected to a model R Omniscriber recorder.

Data set [2] can be described thus: in vivo. Conditions: mouse, ip, NMRI male mice, suspended in Tween 80 at 1% plus CMC at 2% in physiological serum, read-out: LD 50 mg/kg. i.p. NMRI mouse. As to the method:
The products were administered via intraperitoneal, suspended in Tween 80 at 1% plus CMC at 2% in physiological serum.
The reference standard used was phenolbutazone.

For data set [3], the system named is lactescence of the serum. In words: Hyperlipaemia activity: lactescence of the serum after oral olive oil. Conditions: for Activity; Hyper Lipaemia (%): Dose 200 mg/kg orally, suspended in 10 ml/kg of olive oil, serum lactescence 6 hours after administration; for hyperlipaemia activity (in words): against clofibrate. It is filed as in vivo. As to the method:
For the determination of the hyperlipaemia activity the products were administered orally suspended in 10 ml/kg of olive oil evaluating the lactescence of the serum 6 hours after administration.

For data set [4], the system named is hypercholesterolaemia induced by the administration of Triton WR 1339. In words: Hypercholesterolaemia induced by Triton WR 1339 (Garattini et al.). It counts as in vivo. Particulars: among the products examined. The text has this:
To determine the hypercholesterolaemia activity tests have been conducted with hypercholesterolaemia induced by the administration of Triton WR 1339 in accordance with S. Garattini C.Morpurgo and Passerini (Experiment 12 (1956)347). The results obtained using clofibrate (ethyl […] of p-chlorophenoxyisobutiric acid), as a reference standard are shown in Table II below.

Setting [5] is: Rattus norvegicus, Platelet, po.

What is called inhibition is the drop in the measured response relative to a control, in per cent.

Take `CC(=O)Oc1ccccc1C(=O)O` [Acelylsalicilic acid, reference compound]: the inhibition at 400 mg/kg in data set [1] (Rattus norvegicus, Platelet, po, 5 h, read-out: Anti platelet aggregation p.o. % inhibition (5 hours)) worked out at 86.3%.
Regarding `O=C(COc1ccc(Cl)cc1)NC(=O)NCN1CCOCC1` [ITA-372, N-(p-chlorophenoxy)acetyl N' -morpholinomethylurea], the inhibition at 200 mg/kg in data set [1] (setting [5]) stood at 8.1%. For the same compound, the LD50 in data set [2] came out at 300 mg/kg.
As to `O=C(NCN1CCOCC1)NC(=O)c1cccnc1` [ITA-378, N-nicotinoil-N'-morpholino methylurea], in data set [3], the “Activity; Hyper Lipaemia (%)” value was 54,7% and the “hyperlipaemia activity (in words)” value is on record as “stand out in this activity”. For the same compound, testing at 200 mg/kg in data set [1] (setting [5]) gave an inhibition of 81.9%. Also, the “anti platelet aggregation activity (in words)” value in data set [1] was “stand out in their anti platelet aggregation activity”. Also, the LD50 in data set [2] was found to be 1700 mg/kg.
As for `COc1ccc2c(c1)c(CC(=O)NC(=O)NCN1CCOCC1)c(C)n2C(=O)c1ccc(Cl)cc1` [ITA-377, N-[1-(p-chiorobenzoil) -2-methyl-5-methoxyindol-3-il]acetyl-N' -morpholinomethylurea], in data set [3], the “Activity; Hyper Lipaemia (%)” value is given as 12,6%. This compound also came in with an inhibition at 200 mg/kg in data set [1] (setting [5]) of 5.3%. For the same compound, the LD50 in data set [2] is above 3000 mg/kg.
On the same counts, the results for `CC(C)(Oc1ccc(C(=O)c2ccc(Cl)cc2)cc1)C(=O)NC(N)=O` [ITA-374, N-2-[p-(p' -chlorobenzoil)phenoxy]-2-methylpropionylurea] are 28,2%, 16.1% and above 3000 mg/kg.
With `CC(C)(Oc1ccc(C(=O)c2ccc(Cl)cc2)cc1)C(=O)NC(=O)NCN1CCOCC1` [ITA-375, N-2-[p-(p'-chlorobenzoil)phenoxy]-2-methylpropionyl-N'-morpholine methylurea], in data set [3], the “Activity; Hyper Lipaemia (%)” value is recorded as 41,1% and the “hyperlipaemia activity (in words)” value is listed as “stand out in this activity”. Further, the “hypercholesterolaemia activity (in words)” value in data set [4] was “stands out for its efficacity”. This compound came in with an inhibition at 200 mg/kg in data set [1] (setting [5]) of 68.5%. Moreover, the “anti platelet aggregation activity (in words)” value in data set [1] is on record as “stand out in their anti platelet aggregation activity”. For the same compound, the LD50 in data set [2] is 950 mg/kg.
Consider `CC(C)Cc1ccc(C(C)C(=O)NC(=O)NCN2CCOCC2)cc1` (stereo not shown) [ITA-376, N-2-(p-isobutylphenyl) propionyl-N'-morpholinomethylurea], for which the “Activity; Hyper Lipaemia (%)” value in data set [3] is 1,3%. In addition, 200 mg/kg produced 12.7% inhibition in data set [1] (setting [5]). Also, in data set [2], the LD50 was found to be 1800 mg/kg.
In the case of `CCOC(=O)C(C)(C)Oc1ccc(Cl)cc1` [Clofibrate, ethyl esther of p-chlorophenoxyisobutiric acid, reference compound], in data set [3], the “Activity; Hyper Lipaemia (%)” value was 22,8%.
Regarding `COc1ccccc1C(=O)NC(=O)NCN1CCOCC1` [ITA-418, N-(2-methoxybenzoil)-N'-morpholinomethylurea], in data set [1] (setting [5]), at 200 mg/kg the inhibition was 68%. Besides, the LD50 in data set [2] worked out at 1100 mg/kg.
The matching figures for `O=C(NCN1CCOCC1)NC(=O)C(Oc1ccc(Cl)cc1)Oc1ccc(Cl)cc1` [ITA-373, N-[bis(p-chiorophenoxy)] acetyl -N'-morpholinomethylurea]: 11.9% and 1700 mg/kg.
